We go through 10 compounds from patent EP0830136B1, “NEW CRY[…] […]” (priority 1995, dated 1996).

Entries after “also recorded” stand apart in the source; their conditions may differ. Like-named read-outs stand apart in the source and are kept apart here.

The nature of one data set: physchem. To be noted: aqueous base, pH 11.
For data set [1], the system named is Human Sm Cell L. DMS273 SCID. To be noted: Exp # 1596; SC Tumor Human Sm Cell L. DMS273 SCID; 6 Inj. IV; 7.3 mg/kg Total Dose.
A further data set deals with LoVo. Nature of the data set: In vitro cytotoxicity, LoVo cell line. It is filed as cell-based, human.
The next data set has as its system Colon 51. To be noted: SC Tumor Colon 51.
A further data set relates to LNCaP Human Prostate. To be noted: Exp # 1841; SC Tumor LNCaP Human Prostate; 6 Inj. IV; 6.5 mg/kg Total Dose.
The subject of another data set is MX-1 Human Breast. To be noted: Exp # 1806; SC Tumor MX-1 Human Breast; 8 Inj. IV; 12 mg/kg Total Dose.
The subject of the next data set is Mam 16/Taxol. To be noted: Exp # 1733; SC Tumor Mam 16/Taxol; 5 Inj. IV; 16.5 mg/kg Total Dose.
In another data set the test system is Mam 16/C. To be noted: SC Tumor Mam 16/C.
Another data set deals with KB. Nature of the data set: In vitro cytotoxicity, KB cell line. It is filed as cell-based, human. To be noted: read-out: RB IC50.
Data set [2] concerns human tumor cell lines KB and LoVo. Nature of the data set: In vitro cytotoxicity, KB and LoVo. To be noted: read-out: cytotoxicities IC50's.
The next data set deals with H125 Human Adenosq-lung. To be noted: Exp # 1823; SC Tumor H125 Human Adenosq-lung; 8 Inj. IV; 14.4 mg/kg Total Dose.
Another data set concerns tumors implanted in mice. To be noted: for T/C values / gross log kill values: summary over trials, partly worded 'mostly'; for in vivo antitumor activity: statement in words.
The next data set concerns M17/0 (Adr. Sens.). To be noted: Exp # 1833; SC Tumor M17/0 (Adr. Sens.); 5 Inj. IV; 5.4 mg/kg Total Dose.
Data set [3] in a line: Methanolysis (solvolysis) of the C-D ester bond. To be noted: methanol used in the isolation scheme. It is filed as physicochemical.
For data set [4], the system named is A-10 rat aortic smooth muscle cells. Nature of the data set: Immunofluorescence of cytoskeleton in A-10 cells. To be noted: A-10 cells, 24 hours; 2µM cytochalasin B, 100nM vinblastine or 10nM cryptophycin compounds. It is filed as cell-based. The protocol: A-10 cells were grown to near-confluency on glass coverslips in BME/10% FBS. Compounds in PBS were added to the indicated final concentrations and cells were incubated for an additional 24 hours. For the staining of microtubules and intermediate filaments, the cells were fixed with cold methanol and incubated with PBS containing 10% calf serum to block nonspecific binding sites. Cells were then incubated at 37°C for 60 min with either monoclonal anti-β-tubulin or with monoclonal anti-vimentin at dilutions recommended by the manufacturer. Bound primary antibodies were subsequently visualized by a 45-minute incubation with fluorescein-conjugated rabbit antimouse IgG. The coverslips were mounted on microscope slides and the fluorescence patterns were examined and photographed using a Zeiss Photomicroscope ill equipped with epifluorescence optics for fluorescein. […] PBS containing 100nM TRITC-phalloidin was then added and the mixture was allowed to incubate for 45 min at 37° C. The cells were washed rapidly three times with PBS before the coverslips were mounted and immediately photographed as described above.

Setting [5] is: Exp # 1560, SC Tumor Colon 38, 8 Inj. IV, 10.3 mg/kg Total Dose.
Where [6] appears, read: Exp # 1636, 7 Inj. IV, 28.1 mg/kg Total Dose.
Where [7] appears, read: Exp # 1720, 5 Inj. IV, 13.2 mg/kg Total Dose.
Setting [8] is: Exp # 1843, SC Tumor P03, 4 Inj. IV, 28/5 mg/kg TD.
Where [9] appears, read: Exp # 1887 B, SC Tumor C38, 6 Inj. IV, 30 mg/kg TD.
Setting [10] is: Exp # 1900, 9 Inj. IV, 67.5 mg/kg TD.
The mark [11] stands for this setting: Exp # 1885, 7 Inj. IV, 21.3 mg/kg TD.
The mark [12] stands for this setting: Exp # 1825, SC Tumor P03, 11 Inj. IV, 106 mg/kg TD.
[13] abbreviates: Exp # 1878, SC Tumor P03, 9 Inj. IV, 82 mg/kg TD.
Where [14] appears, read: Exp # 1813, SC Tumor P03, 9 Inj. IV, 27 mg/kg TD.
Where [15] appears, read: Exp # 1843, SC Tumor P03, 7 Inj. IV, 23 mg/kg TD.

A word on the T/C: it is the result in the treated group divided by that in the control group, in per cent. In general, half-life refers to how long it takes for the measured level to halve. Low readings indicate rapid decline, high ones slow decline. The IC50 is the midpoint of a concentration-inhibition curve. Turning to `COc1ccc(C[C@H]2NC(=O)/C=C/C[C@@H]([C@H](C)[C@H]3O[C@@H]3c3ccccc3)OC(=O)[C@H](CC(C)C)OC(=O)[C@H](C)CNC2=O)cc1Cl` [Cryptophycin 1], the “% Body Wt. Loss at Nadir” value with Colon 38 (setting [5]) was “Gain”; in data set [1], 0%; in the data set on Colon 51 (setting [6]) it was -11%; with LNCaP Human Prostate it was -6%; in the data set on MX-1 Human Breast it was -3%; in the data set with Mam 16/Taxol it was 0%. In addition, the “% Body Wt. Loss at Nadir” value in the data set with Mam 16/C (setting [7]) is given as -1%; in the data set on H125 Human Adenosq-lung, -15%; in the data set on M17/0 (Adr. Sens.) it was -10%. Further, the Cures (with Colon 38 (setting [5]); in data set [1]; in the data set with Colon 51 (setting [6]); in the data set on LNCaP Human Prostate; in the data set on MX-1 Human Breast; in the data set on Mam 16/Taxol) was 0/5 in each case. Besides, the Cures in the data set on Mam 16/C (setting [7]), in the data set on H125 Human Adenosq-lung and in the data set with M17/0 (Adr. Sens.) was 0/5 throughout. In addition, the “Log Kill” value in the data set on Colon 38 (setting [5]) is given as 1.5; in [1] it was less than 1; in the data set on Colon 51 (setting [6]) it was 1.3; with LNCaP Human Prostate it was less than 1; in the data set on MX-1 Human Breast it was 2.0; in the data set with Mam 16/Taxol, 1.8. In addition, the “Log Kill” value in the data set with Mam 16/C (setting [7]) is 1.4; in the data set on H125 Human Adenosq-lung it was 1.1; with M17/0 (Adr. Sens.) it was less than 1. Further, the T/C is given as 6% with Colon 38 (setting [5]); 27% in data set [1]; 7% in the data set with Colon 51 (setting [6]); 26% in the data set on LNCaP Human Prostate; 3% in the data set on MX-1 Human Breast; 2% with Mam 16/Taxol. Also, the T/C with Mam 16/C (setting [7]) is on record as 5%; in the data set with H125 Human Adenosq-lung, 9%; in the data set with M17/0 (Adr. Sens.), 23%. For the same compound, the half-life in “physchem” was 49.8 min. Further, the IC50 in the data set on LoVo was 0.0104 nM; in the data set on KB, 0.0092 nM; in data set [2], 0.009 to 0.029 nM. The dead in the data set on H125 Human Adenosq-lung is listed as 1/5. For the same compound, the toxicity in animals entry in the data set with tumors implanted in mice (compared with Cryptophycin 8) is recorded as “appreciable toxicity”. The same compound gave a T/C values in the data set with tumors implanted in mice greater than 0%. The “gross log kill values” in the data set with tumors implanted in mice is recorded as less than 2.0. Moreover, in [3], the “methanolysis of the C-D ester bond” value is listed as “considerable methanolysis”.

In the data set with LoVo, `COc1ccc(C[C@H]2NC(=O)/C=C/C[C@@H]([C@H](C)/C=C/c3ccccc3)OC(=O)[C@H](CC(C)C)OC(=O)[C@H](C)CNC2=O)cc1Cl` [Cryptophycin 3] returned a half-inhibitory concentration (IC50) of 1.9 to 5.8 nM. In the data set on KB, the half-inhibitory concentration (IC50) was 3.1 to 4.6 nM. Besides, in data set [2], the half-maximal inhibitory concentration (IC50) was in the range of 3.5 to 5.8 nM. For the same compound, the “in vivo antitumor activity” value in the data set with tumors implanted in mice was “antitumor activity is greatly diminished”. In the data set on Panc 03 (setting [8]), the “% Body Wt. Loss at Nadir” value is -9%, the Cures was 0/5, the “Log Kill” value is less than 1 and the T/C came to 54%.

Take `COc1ccc(C[C@H]2NC(=O)/C=C/C[C@@H]([C@H](C)[C@@H](O)[C@@H](Cl)c3ccccc3)OC(=O)[C@H](CC(C)C)OC(=O)[C@H](C)CNC2=O)cc1Cl` [Cryptophycin 8]: the “% Body Wt. Loss at Nadir” value with Colon 38 (setting [9]) was -2%; in the data set with Colon 51 (setting [10]), -1%; with Mam 16/C (setting [11]), -4.5%; in the data set with Panc 03 (setting [12]), -6%. For the same compound, the Cures in the data set on Colon 38 (setting [9]) is given as 1/5; in the data set with Colon 51 (setting [10]), 0/5; in the data set with Mam 16/C (setting [11]), 0/5; in the data set on Panc 03 (setting [12]), 0/5. The “Log Kill” value in the data set on Colon 38 (setting [9]) was found to be 2.8; in the data set with Colon 51 (setting [10]), 1.8; with Mam 16/C (setting [11]) it was 2.5; with Panc 03 (mouse, in vivo, 106 mg/kg), 4.6. Further, the T/C is recorded as 0% in the data set with Colon 38 (setting [9]), 7% in the data set with Colon 51 (setting [10]), 6% in the data set on Mam 16/C (setting [11]) and 4% in the data set on Panc 03 (setting [12]). In addition, the IC50 with LoVo was 0.0091 nM; with KB, 0.019 nM; in data set [2] it was 0.009 to 0.019 nM. The T/C values in the data set on tumors implanted in mice is listed as 0%. Besides, the “gross log kill values” in the data set on tumors implanted in mice is greater than 2.8.

Turning to `COc1ccc(C[C@H]2NC(=O)/C=C/C[C@@H]([C@H](C)[C@@H](O)[C@@H](O)c3ccccc3)OC(=O)[C@H](CC(C)C)OC(=O)[C@H](C)CNC2=O)cc1Cl` [Cryptophycin 15], the “in vivo antitumor activity” value in the data set with tumors implanted in mice is given as “antitumor activity is greatly diminished”.

For the compound `CC(C)C[C@@H]1OC(=O)[C@H](C)CNC(=O)[C@@H](Cc2ccc(O)c(Cl)c2)NC(=O)/C=C/C[C@@H]([C@H](C)[C@H]2O[C@@H]2c2ccccc2)OC1=O` [Cryptophycin 16], in the data set with Panc 03 (setting [13]), the “% Body Wt. Loss at Nadir” value is -1%, the Cures is recorded as 0/5, the “Log Kill” value is given as “None” and the T/C amounted to 89%.

For `COc1ccc(C[C@H]2NC(=O)/C=C/C[C@@H]([C@H](C)[C@H]3O[C@@H]3c3ccccc3)OC(=O)[C@H](CC(C)C)OC(=O)CCNC2=O)cc1Cl` [Cryptophycin 21], the half-life in the data set “physchem” is 15 min. For the same compound, the “in vivo antitumor activity” value in the data set on tumors implanted in mice is “inactive”. In the data set on Panc 03 (setting [14]), the “% Body Wt. Loss at Nadir” value is on record as -11%, the Cures is recorded as 0/5, the “Log Kill” value is on record as “None” and the T/C was 61%. Also, the dead with Panc 03 (setting [14]) is reported as 1/5. In data set [3], the “methanolysis of the C-D ester bond” value is “considerable methanolysis; also recorded: much more susceptible to methanolysis than Cryptophycin 1”.

In the case of `COc1ccc(C[C@H]2NC(=O)/C=C/C[C@@H]([C@H](C)[C@@H](O)[C@@H](Br)c3ccccc3)OC(=O)[C@H](CC(C)C)OC(=O)[C@H](C)CNC2=O)cc1Cl` [Cryptophycin 25], the “T/C and gross log kill values, comparison in words” value in the data set on tumors implanted in mice (mouse, in vivo) is reported as “comparable with those for Cryptophycin 1”.

Turning to `COc1ccc(CC2NC(=O)CCCC(C(C)C3OC3c3ccccc3)OC(=O)C(CC(C)C)OC(=O)C(C)CNC2=O)cc1Cl` (stereo not drawn) [Cryptophycin 35], in the data set on Panc 03 (setting [15]), the “% Body Wt. Loss at Nadir” value is recorded as -2%, the Cures was 0/5, the “Log Kill” value is 1.3 and the T/C came to 11%.

`COc1ccc(C[C@H]2NC(=O)/C=C/C[C@@H]([C@H](C)/C=C/c3ccccc3)OC(=O)[C@H](CC(C)C)OC(=O)C(C)(C)CNC2=O)cc1Cl` [Cryptophycin 51]: in data set [2], the IC50 was 3.5 to 5.8 nM.

With `C=C1[C@@H](C)[C@H]2[C@H](Cc3ccccc3)NC(=O)[C@]23OC(=O)/C=C/[C@H](O)CCC[C@@H](C)C/C=C/[C@H]3[C@@H]1O` [Cytochalasin B, cytochalasin B], in data set [4], the effect on microfilaments result is on record as “complete depolymerization of microfilaments”, the effect on microtubules result is recorded as “did not affect the distribution of either mierotubules or intermediate filaments” and the “effect on vimentin intermediate filaments” value is listed as “did not affect the distribution of either mierotubules or intermediate filaments”.
